Format in all cases: in vivo, mouse
The test system of assay [1] is ApoE−/− mice fed a western diet. As to the kind of experiment: Skin and hair phenotype (hair discoloration, hair loss, skin inflammation, wounds) in ApoE-/- mice fed western diet. An excerpt: Male, 11-week-old apolipoprotein E-deficient (ApoE−/−) mice were purchased from Jackson Labs (Bar Harbor, Maine), and fed a western diet from the age of 12 to 20 weeks. Next, they were divided into the following diet/treatment groups.
Measurement of skin discoloration: An oval shape was drawn on the photographs taken from mice at the age of 36 weeks. This oval space covered the back area of mice from the neck to the tail ([…]). Using the free drawing pen and measure/analyze tool, the white area was measured for each mouse. The ratio of white area to the total area was then calculated, and the standard deviations for all the animals in each cage (N=5) was calculated and plotted.
Measurement of wounds and wound healing: For mouse skin wound analysis, the number of visible wounds in placebo-vs. BPD-treated mice (N=5 in each group), were counted manually. Then, averages of the wounds for each group were determined, as were the ratios of wounds in BPD-vs placebo-treated mice. Those ratios were then converted to percentages, expressed as “% wound healing.”

Assay [2] deals with skin glycosphingolipids (ceramide, monohexosylceramide, lactosylceramide). The assay can be described thus: Skin glycosphingolipids by LC-ESI/MS/MS in ApoE-/- mice fed western diet. An excerpt:
Sample preparation: Glycosphingolipid molecular species were extracted according to a modified Bligh and Dyer procedure^55 Briefly, about 50-mg of each tissue sample was homogenized with 10 volumes of HPLC water at room temperature, followed by addition of 30 volumes methanol solution containing ammonium formate and d18:1/C12:0 ceramide as an internal standard (Avanti Polar Lipids, Alabaster, Alabama). The mixture was vortexed (Vortex-Genie, Model G560, Scientific Industries, Bohemia, NY), and 40 volumes of chloroform added. The mixture was vortexed again and centrifuged (Eppendorf centrifuge #5424) at 1,000 g for 10 minutes. The chloroform (bottom layer) was separated and dried using a Savant™ SPD131 SpeedVac (Thermo Scientific, Pittsburgh, PA, USA). Dried extracts were resuspended in pure methanol and sealed and stored at −80° C. until analysis by LC-ESI/MS/MS, as described previously^30-40.

Another assay concerns B1-4GalT-V. As to the kind of experiment: GalT-V mass in skin tissue by ELISA, ApoE-/- mice fed western diet. On the technique in general: An ELISA detects its analyte on a solid surface through an enzyme-linked reagent.
The subject of assay [3] is glucosylceramide synthase (UCGC). As to the kind of experiment: q-RT-PCR mRNA mass in skin tissue. As to conditions: placebo vs D-PDMP fed ApoE-/- mice (data not shown).
Another assay deals with LacCer synthase (GalT-V). As to the kind of experiment: q-RT-PCR mRNA mass in skin tissue. As to conditions: placebo vs D-PDMP fed ApoE-/- mice (data not shown). The procedure:
Analysis of gene expression by quantitative Real-Time PCR: A ~50-mg piece of skin tissue was homogenized from each mice and total RNA was isolated using TRIsol reagent according to the manufacturer's instructions (Invitrogen, Camarillo, CA). Two microgram of RNA were reverse transcribed with SuperScript II using random primers. The primer sequence for GalT-V were as follows:
The primers were synthesized by Integrated DNA Technologies (Coralville, USA). Real time PCR were performed using SYBR Green PCR Master Mix PCR Master Mix (applied Biosystems, Foster City, CA, USA) in an Applied Biosystems Step one Real time PCR system as described previously^52. Data were normalized to GAPDH mRNA levels. Expression suite software (Applied Biosystems) was used to analyze the data.

[4] abbreviates: western diet, BPD 1-10 mpk, D-PDMP 10 mpk, 20-36 weeks.

Procedure for B1-4GalT-V: Measurement of B1-4GalT-V mass in skin tissue: Here, about 10-mg skin tissue was homogenized in RIPA buffer and centrifuged at 10,000 rpm. The mass of GalT-V was measured in the supernatant fraction using an ELISA assay. About 100-μg of each protein sample (in triplicate) was loaded in 96-well, medium-binding, clear flat bottom polystyrene ELISA plates (Immulux, Chantilly VA)-total volume adjusted to 100 μL with bicarbonate buffer (50 mM Na2CO3—NaHCO3). […] This antibody specifically recognizes human, mouse and rat tissue B4GalT-V. Moreover, this interaction can be inhibited by large volumes of the GalT-V peptide but not other proteins or scrambled peptide. After overnight incubation at 4 C, 200 μL of blocking buffer (1% bovine serum albumin/phosphate buffered saline) was added and incubation continued overnight. […] C., followed by incubation for 1-hr at 37 deg. C. with a horseradish peroxidase-conjugated IgG (Sigma) secondary antibody. Finally, 100-μL of TMB solution was added, and after 10 min incubation at 37° C., absorbance was measured at 450 nm.

On to `CCCCCCCCCC(=O)N[C@H](CN1CCOCC1)[C@H](O)c1ccccc1` [D-PDMP, D-threo-1-phenyl-2-decanoylamino-3-morpholino-1-propanol], for which the “% wound healing” value in assay [1] (10 mpk D-PDMP daily oral gavage, age 20-36 weeks, western diet) was determined as 83%. Besides, the “hair discoloration, hair loss, and skin inflammation” value in assay [1] (10 mpk unbound D-PDMP with western diet, 20 to 36 weeks) is “also interfered with these pathologies”. The “lactosylceramide d18:1/22:0 and d18:1/24:1 in skin” value in assay [2] (1 mpk BPD or 10 mpk D-PDMP) was “restored to normal”. Moreover, in assay [2] (1 mpk BPD or 10 mpk D-PDMP, western diet lowered them ~3-fold), the “levels of fatty acid molecular species of skin ceramide” value is “increased them to normal levels”. Besides, the “d18:1/24:1 monohexosylceramide in skin” value in assay [2] (1 mpk BPD vs 10 mpk D-PDMP, western diet lowered it ~3-fold) is “but not 10 mpk D-PDMP, completely restored”. Moreover, in assay [2] (10 mpk D-PDMP), the “d18:1/26:1 ceramide in skin” value was “did not reverse the loss”. The “lactosylceramide d18:1/16:0 in skin” value in assay [2] (36 weeks, western diet raised it 3-fold) is given as “modestly decreased”. Moreover, the “18:1/24:0 monohexosylceramide in skin” value in assay [2] (printed: 1 mpk D-PDMP as efficacious as 10 mpk BPD, western diet lowered it ~1.5-fold) is recorded as “reversed”. Further, in assay [2] (setting [4]), the “glucosylceramide level in skin” value is reported as “also increased” and the “total ceramide level in skin” value is listed as “also increased”. Also, the “total lactosylceramide level in skin” value in assay [2] (western diet, BPD or D-PDMP) is listed as “decreased”. For the same compound, the “mass of GalT-V in skin tissue” value with B1-4GalT-V is listed as “showed a decrease”. In assay [3], the “mRNA mass of glucosylceramide synthase in skin” value was “No statistical difference”. In addition, the “mRNA mass of LacCer synthase (GalT-V) in skin” value in the assay on LacCer synthase (GalT-V) was “No statistical difference”.
